Experimental data published in paper PMC10689823, “Discovery of a Drug-like, Natural Product-Inspired DCAF11 Ligand Chemotype” (Nature Communications, 2023).
Several values for one entry are separate records, joined by “and”; a condition that tells them apart may be missing. Equal entries are not always repeated.

Assays:
Type in all cases: cell-based
BRD3 = biological target: T1, BRD3 (Homo sapiens, UniProt Q15059); assay: BRD3 levels by Western blot in Jurkat cells
T1 construct: endogenous in cells; host or cells: Jurkat
T1 sequence (Q15059 whole entry): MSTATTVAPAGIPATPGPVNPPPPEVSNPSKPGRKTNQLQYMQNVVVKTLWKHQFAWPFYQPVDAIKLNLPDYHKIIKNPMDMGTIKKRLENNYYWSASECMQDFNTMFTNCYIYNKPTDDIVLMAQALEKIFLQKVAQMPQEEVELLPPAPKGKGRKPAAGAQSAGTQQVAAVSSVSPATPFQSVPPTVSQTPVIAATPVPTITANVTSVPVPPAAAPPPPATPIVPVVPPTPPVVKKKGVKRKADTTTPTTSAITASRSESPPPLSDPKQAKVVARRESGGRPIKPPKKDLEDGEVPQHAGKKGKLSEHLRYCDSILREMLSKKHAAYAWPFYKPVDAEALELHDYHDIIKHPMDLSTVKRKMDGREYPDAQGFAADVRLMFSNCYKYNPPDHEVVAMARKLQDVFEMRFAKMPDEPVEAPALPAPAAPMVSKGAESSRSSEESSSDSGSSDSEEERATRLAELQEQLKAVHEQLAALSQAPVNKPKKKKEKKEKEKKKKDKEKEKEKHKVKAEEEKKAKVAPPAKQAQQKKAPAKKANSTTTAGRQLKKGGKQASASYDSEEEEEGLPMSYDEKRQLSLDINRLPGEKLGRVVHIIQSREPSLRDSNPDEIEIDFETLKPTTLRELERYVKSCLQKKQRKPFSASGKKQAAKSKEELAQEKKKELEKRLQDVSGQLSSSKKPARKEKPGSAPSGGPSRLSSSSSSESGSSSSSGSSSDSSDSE
Description: (§1) Cells were washed with PBS and lysed in lysis buffer (50 mM Tris-HCl, pH 7.4, 150 mM NaCl, 1% Triton X-100, 1% sodium deoxycholate, 0.1% SDS) with complete protease inhibitor cocktail (Roche, 11836170001) for 30 min on ice. For Ramos cells, cell pellets were lysed in lysis buffer (50 mM Tris-HCl, pH 8, 150 mM NaCl, 1% NP-40, 0.5% sodium deoxycholate) with complete protease inhibitor cocktail. After centrifugation at 16,000 x g, the supernatant was transferred into a new tube and the protein concentration was determined by DC protein assay (BIO-RAD, 5000116). Proteins were separated by SDS-PAGE and transferred to a PVDF membrane (Thermo scientific, 0.45 μm, 88518). For PDEδ, BRD2, GAPDH, BRD4, Vinculin and BTK, the membranes were blocked with Intercept® Blocking Buffer (LI-COR Biosciences, 927-70001) at room temperature for 1 h. The primary antibodies for these proteins were diluted with Intercept® Blocking Buffer (1:500 for PDEδ, 1:3000 for Vinculin, and 1:1000 for other proteins) and incubated with the membranes overnight at 4 °C. Membranes were washed with PBS + 0.1% Tween 20 (PBS-T) five times and incubated with secondary antibodies conjugated to IRDye® Infrared Fluorescent Dyes (1:5000, LI-COR Biosciences) at room temperature for 1 h with protection from light. After washing the membrane, signals were visualized using the ChemiDoc MP Imaging System (BIO-RAD Laboratories). For detection of LC3B, BRD3, BLK, DCAF11, DDB1 RBX1, FIP200, V5- and FLAG-Tag the membranes were blocked with 5% milk in PBS-T at room temperature for 1 h. The primary antibodies for these proteins were diluted in 5% milk in PBS-T buffer (1:200 for BRD3, 1:1000 for other proteins) and incubated with the membranes overnight at 4 °C. Membranes were washed with PBS-T five times and incubated with HRP secondary antibodies (1:1500) at room temperature for 1 h. After washing the membrane, protein detection was performed using Western blotting detection reagent (Thermo Scientific, 34095) and the ChemiDoc MP Imaging System (BIO-RAD). Relative band intensities were quantified using Image Lab (BIO-RAD).

BRD4 = biological target: T2, BRD4 (Homo sapiens, UniProt O60885); assay: BRD4 levels by Western blot in Jurkat cells
T2 construct: endogenous in cells; host or cells: Jurkat
Description: as §1

BRD4(S)-BFP = biological target: T3, BRD4(S)-BFP (Homo sapiens, UniProt O60885); assay: Flow cytometry-based BRD4 reporter assay (DCAF11 knockout/rescue); conditions: 6 h, 10 at 5 µM, 9 at 1 µM, dBET6 at 0.5 µM, DMSO = 1
T3 construct: BRD4 short isoform (amino acids 1-719; Twist Bioscience); V5; P2A-mCherry (mCherry split off by P2A self-cleavage) (C, cleaved yes); expressed in transfected cells; host or cells: KBM7 iCas9 cells, lentiviral SFFV-BRD4(S)-mTagBFP-P2A-mCherry
Description: Stable BRD4(S)-BFP reporter KBM7 iCas9 cell line was generated as previously described. […] Cells were subsequently washed, resuspended in FACS buffer and analyzed on LSRFortessa (BD Biosciences). Flow cytometry data was analyzed in FlowJo (v10.8.1). BFP and mCherry mean fluorescence intensity (MFI) values for were normalized by background subtraction of the respective values from reporter negative KBM7 wild type cells.

[1] = Cell viability assay (CellTiter-Glo) in Jurkat cells; conditions: human, Jurkat cells; for viability at 72 h, 10 nmol/L: concentration 10 nmol/L; for viability at 72 h, 30 nmol/L: concentration 30 nmol/L; for viability at 72 h, 100 nmol/L: concentration 100 nmol/L; for viability at 72 h, 1000 nmol/L: concentration 1000 nmol/L; for viability at 72 h, 3000 nmol/L: concentration 3000 nmol/L; for viability at 72 h, 0.01 µM: 10 nM; for viability at 72 h, 0.03 µM: 30 nM; for viability at 72 h, 0.1 µM: 100 nM
How it was run: (§2)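 Jurkat and Hep G2 cells were exposed to compounds for 72 h, with an untreated plate counted at time zero. Viability was read as CellTiter-Glo luminescence after 10 min reagent incubation at room temperature.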

Jurkat cells = assay: as above; conditions: for GI50: Homo sapiens; for GI50 / Relative cell viability (%): Jurkat cells, 72 h; for Relative cell viability (%): Fig. 4k; for Cell viability (%) relative to DMSO: individual replicates, Supplementary Fig. 7g
How it was run: as §2

BRD2 [2] = biological target: T4, BRD2 (Homo sapiens, UniProt P25440); assay: BRD2 levels by Western blot in KBM7 cells (WT, DCAF11 knockout, DDB1 knockout); set-up: endogenous in cells; host or cells: KBM7 (WT, DCAF11 KO, DDB1 KO)
T4 sequence (P25440 whole entry): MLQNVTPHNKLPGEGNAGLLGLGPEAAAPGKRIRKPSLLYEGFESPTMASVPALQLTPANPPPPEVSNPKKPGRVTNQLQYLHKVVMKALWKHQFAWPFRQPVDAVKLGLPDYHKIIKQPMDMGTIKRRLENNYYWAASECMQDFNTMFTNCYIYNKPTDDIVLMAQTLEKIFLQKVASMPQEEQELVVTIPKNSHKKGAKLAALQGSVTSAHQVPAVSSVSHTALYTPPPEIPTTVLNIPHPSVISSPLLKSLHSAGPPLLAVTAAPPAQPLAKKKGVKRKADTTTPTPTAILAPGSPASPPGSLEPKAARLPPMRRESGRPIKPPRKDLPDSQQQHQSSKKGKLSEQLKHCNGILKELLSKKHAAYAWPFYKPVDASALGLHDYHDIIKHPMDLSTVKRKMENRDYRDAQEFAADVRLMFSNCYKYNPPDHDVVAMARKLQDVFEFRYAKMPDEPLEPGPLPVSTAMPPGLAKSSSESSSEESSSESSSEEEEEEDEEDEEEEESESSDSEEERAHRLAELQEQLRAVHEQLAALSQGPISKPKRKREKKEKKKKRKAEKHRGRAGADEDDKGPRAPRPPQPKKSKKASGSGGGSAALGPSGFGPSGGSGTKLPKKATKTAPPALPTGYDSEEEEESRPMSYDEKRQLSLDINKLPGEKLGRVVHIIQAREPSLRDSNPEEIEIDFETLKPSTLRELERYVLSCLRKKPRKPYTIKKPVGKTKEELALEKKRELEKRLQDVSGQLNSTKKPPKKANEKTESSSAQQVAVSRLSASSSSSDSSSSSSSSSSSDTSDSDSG
Description: as §1
DCAF11- or FIP200 (RB1CC1)-targeting sgRNAs were lentivirally packaged using PEI transfection of Lenti-X cells. The viral supernatant was harvested after 72 h, cleared of cellular debris by filtration through a 0.45-µm PES filter and stored in aliquots at −80 °C. The appropriate amount of viral supernatant was transduced into KBM7 cells (1 × 10^6 cells/mL) via spinfection (2000 rpm, 1 h, 37 °C) with polybrene (8 µg/mL). Two days post transduction, the cells were selected with puromycin (1 µg/mL) for a total of 5 days, after which the knockout pools were validated via western blotting.

BRD2 [3] = biological target: T4, BRD2; assay: BRD2 levels by Western blot in Jurkat cells; set-up: endogenous in cells; host or cells: Jurkat; Hep G2; MDA-MB-231; KBM7 (WT, DCAF11 KO, DDB1 KO); Dmax: dose or concentration left out as unconfirmed
Description: as §1

[4] = individual replicates, Supplementary Fig. 7g, read-out: Cell viability (%) relative to DMSO
[5] = 72 h, Fig. 4k, read-out: Relative cell viability (%)

Cc1sc2c(c1C)C(c1ccc(Cl)cc1)=N[C@@H](CC(=O)NCCOCCOCCOCCOCCNC(=O)COc1c(Br)cc(/C=C3\C(=O)Nc4ccc(Br)cc43)cc1Br)c1nnc(C)n1-2 [Compound 9]
degradation of BRD3 (BRD3; 3 µM, 6 h treatment): potent degradation activity | hook effect for BRD3 (BRD3; 6 h, at 10 µM): strong hook effect | degradation of BRD4 (BRD4; 3 µM, 6 h treatment): potent degradation activity | hook effect for BRD4 (BRD4; 6 h, up to 50 µM concentration): almost no hook effect | norm BRD4 abundance (BRD4(S)-BFP; KBM7 iCas9 BRD4(S)-BFP reporter cells, WT): 0.4125 | norm BRD4 abundance (BRD4(S)-BFP; reporter cells, DCAF11 KO + WT cDNA): 0.4289 | norm BRD4 abundance (BRD4(S)-BFP; reporter cells, DCAF11 KO): 0.7503 | viability at 72 h, 10 nmol/L [1, 4]: 89.8% | viability at 72 h, 30 nmol/L [1, 4]: 92.8% | viability at 72 h, 100 nmol/L [1, 4]: 101% | viability at 72 h, 1000 nmol/L [1, 4]: 13% | viability at 72 h, 3000 nmol/L [1, 4]: 1.47% | viability at 72 h, 0.01 µM [1, 5]: 100% | viability at 72 h, 0.03 µM [1, 5]: 92% | viability at 72 h, 0.1 µM [1, 5]: 64.6% | GI50 (Jurkat cells): 90 ± 20 nM | BRD2 degradation after knockout of DDB1 in KBM7 cells (BRD2 [2]; 0.5 µg/mL Dox for 3 days, then compound 4 h): did not lead to BRD2 degradation anymore | BRD2 degradation in DCAF11 knockout (KO1 and KO2) KBM7 cells (BRD2 [2]; 9 at 3 μM, 10 at 10 μM, 11 at 10 μM, 6 h): abolished | BRD2 degradation in KBM7 cells (BRD2 [2]; 4 h): displayed BRD2-degrading activity | degradation of BRD2 (BRD2 [3]; 3 µM, 6 h treatment): potent degradation activity | BRD2 levels after washout (BRD2 [3]; 10 μM, 5 h prior to washout): did not recover | DC50 (BRD2 [3]; 6 h, read-out: half-maximal degradation concentration (DC50) of BRD2): 255 nM | Dmax (BRD2 [3]; 6 h, read-out: maximum level of degradation (Dmax) of BRD2): 84% | hook effect for BRD2 (BRD2 [3]; 6 h, up to 50 µM concentration): almost no hook effect

O=C1Nc2ccc(Br)cc2C1=Cc1cc(Br)c(O)c(Br)c1 [Compound 2]
viability at 72 h, 10 nmol/L [1, 4]: 95.2% | viability at 72 h, 30 nmol/L [1, 4]: 91.8% | viability at 72 h, 100 nmol/L [1, 4]: 87.9% | viability at 72 h, 300 nmol/L ([1]; concentration 300 nmol/L, individual replicates, Supplementary Fig. 7g, read-out: Cell viability (%) relative to DMSO): 89.9% | viability at 72 h, 1000 nmol/L [1, 4]: 90.3% | viability at 72 h, 3000 nmol/L [1, 4]: 86.4% | viability at 72 h, 30000 nmol/L ([1]; concentration 30000 nmol/L, individual replicates, Supplementary Fig. 7g, read-out: Cell viability (%) relative to DMSO): 44.6% | viability at 72 h, 0.01 µM [1, 5]: 98.6% | viability at 72 h, 0.03 µM [1, 5]: 96.8% | viability at 72 h, 0.1 µM [1, 5]: 93.4% | viability at 72 h, 0.3 µM ([1]; 72 h, 300 nM, Fig. 4k, read-out: Relative cell viability (%)): 95.1% | viability at 72 h, 1 µM ([1]; 72 h, 1000 nM, Fig. 4k, read-out: Relative cell viability (%)): 96.9% | viability at 72 h, 3 µM ([1]; 72 h, 3000 nM, Fig. 4k, read-out: Relative cell viability (%)): 93.5% | viability at 72 h, 10 µM ([1]; 72 h, 10000 nM, Fig. 4k, read-out: Relative cell viability (%)): 80.3% | viability at 72 h, 30 µM ([1]; 72 h, 30000 nM, Fig. 4k, read-out: Relative cell viability (%)): 59.8% | GI50 (Jurkat cells): > 30000 nM | Relative cell viability (%) (Jurkat cells; 10 nM, 0.01 µM): 109.397% and 95.8659% | Relative cell viability (%) (Jurkat cells; 30 nM, 0.03 µM): 109.179% and 98.227% | Relative cell viability (%) (Jurkat cells; 100 nM, 0.1 µM): 109.452% and 110.948% | Relative cell viability (%) (Jurkat cells; 300 nM, 0.3 µM): 108.619% and 101.195% | Relative cell viability (%) (Jurkat cells; 1000 nM, 1 µM): 100.635% and 106.748% | Relative cell viability (%) (Jurkat cells; 3000 nM, 3 µM): 102.832% and 100.062% | Relative cell viability (%) (Jurkat cells; 10000 nM, 10 µM): 99.6522% and 88.024% | Relative cell viability (%) (Jurkat cells; 30000 nM, 30 µM): 74.0357% and 70.3951% | Cell viability (%) relative to DMSO (Jurkat cells; concentration 10 nmol/L): 103.951% and 104.068% | Cell viability (%) relative to DMSO (Jurkat cells; concentration 30 nmol/L): 103.682% and 105.344% | Cell viability (%) relative to DMSO (Jurkat cells; concentration 100 nmol/L): 100.341% and 100.604% | Cell viability (%) relative to DMSO (Jurkat cells; concentration 300 nmol/L): 97.5611% and 103.704% | Cell viability (%) relative to DMSO (Jurkat cells; concentration 1000 nmol/L): 98.2177% and 99.0254% | Cell viability (%) relative to DMSO (Jurkat cells; concentration 3000 nmol/L): 82.942% and 99.8195% | Cell viability (%) relative to DMSO (Jurkat cells; concentration 10000 nmol/L): 67.1883% and 83.6742% and 92.9267% | Cell viability (%) relative to DMSO (Jurkat cells; concentration 30000 nmol/L): 49.2545% and 60.9936% | BRD2 protein levels, ligands alone or in combination (BRD2 [3]; 3 μM, 4 h): did not reduce BRD2 protein levels
